According to US10450297B2, “Sulfonyl amide derivatives for the treatment of abnormal cell growth” (Pfizer, Inc., priority 2007, dated 2019):

Target: FAK kinase (catalytic construct FAK(410-689)) (Homo sapiens (Human), UniProt Q05397)
Test: FAKcd kinase ELISA (inhibition of poly-glu-tyr phosphorylation by FAK(410-689))
Type: biochemical
Conditions: 50 μM final ATP
Procedure: A. In-Vitro Activity of FAK:
The assay protocol has three parts:
3. […] 4. […] 5. […] 6. […] 7. […] 9. […] 10. […] 12. […] 13. […] 14. Aliquot the FAKcd protein and store frozen at −80° C. II. FAK Activation 1. […] At t120 (t=120 minutes), add 10 μl of 150 mM ATP. […] Add 180 μl aliquots of the desalted material to NiNTA spin column and incubate on spin column 4. […] FAKcd Kinase ELISA 1. Coat 96-well Nunc MaxiSorp plates with poly-glu-tyr (pGT) at […]: Prepare 10 μg/ml of pGT in PBS and aliquot 100 μl/well. Incubate the plates at 37° C. overnight, aspirate the supernatant, wash the plates 3 times with Wash Buffer, and flick to dry before storing at 4° C. 2. Prepare compound stock solutions of 2.5 mM in 100% DMSO. The stocks are subsequently diluted to 60× of the final concentration in 100% DMSO, and diluted 1:5 in Kinase Phosphorylation Buffer. 3. […] Add 80 μl to each well for a final ATP concentration of 50 μM. 4. […] 5. Dilute on ice, FAKcd protein to 1:1000 in Kinase Phosphorylation Buffer. Dispense 30 μl per well. 6. Note: Linearity and the appropriate dilution must be pre-determined for each batch of protein. The enzyme concentration selected should be such that quantitation of the assay signal will be approximately 0.8-1.0 at OD450, and in the linear range of the reaction rate. 7. Prepare both a No ATP control (noise) and a No Compound Control (Signal): 8. (Noise) One blank row of wells receives 10 μl of 1:5 diluted compounds in DMSO, 80 μl of Phosphorylation buffer (minus ATP), and 30 μl FAKcd solution. 9. […] 10. Incubate reaction at room temperature for 15 minutes with gentle shaking on a plate shaker. 11. Terminate the reaction by aspirating off the reaction mixture and washing 3 times with wash buffer. 12. Dilute phospho-tyrosine HRP-conjugated (pY20HRP) antibody to 0.250 μg/ml (1:1000 of Stock) in blocking buffer. Dispense 100 μl per well, and incubate with shaking for 30 minutes at 25°. 13. Aspirate the supernatant and wash the plate 3 times with wash buffer. 14. Add 100 μl per well of room temperature TMB solution to initiate color development. Color development is terminated after approximately 15-30 sec. by the addition of 100 μl of 0.09M H2SO4 per well. 15. The signal is quantitated by measurement of absorbance at 450 nm on the BioRad ricroplate reader or a microplate reader capable of reading at OD450. 16. Inhibition of tyrosine kinase activity would result in a reduced absorbance signal. […] The values are reported as IC50s, μM concentration. FAK Inducible cell-based ELISA: Final Protocol Materials: […]

FAK kinase (catalytic construct FAK(410-689)), sequence (Q05397 410-689): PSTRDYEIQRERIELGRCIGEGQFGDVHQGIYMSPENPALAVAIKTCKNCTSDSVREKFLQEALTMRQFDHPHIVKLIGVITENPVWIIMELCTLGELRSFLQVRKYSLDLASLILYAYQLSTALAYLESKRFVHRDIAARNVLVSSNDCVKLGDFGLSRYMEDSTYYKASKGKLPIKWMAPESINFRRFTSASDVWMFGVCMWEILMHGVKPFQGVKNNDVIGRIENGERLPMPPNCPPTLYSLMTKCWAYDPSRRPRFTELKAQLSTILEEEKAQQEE

SMILES | IC50
CC(=O)N1CC[C@@H](Nc2ncc(C(F)(F)F)c(NCc3cccnc3N(C)S(C)(=O)=O)n2)C1 [Compound 39, N-[3-({[2-{[(3R)-1-acetylpyrrolidin-3-yl]amino}-5-(trifluoromethyl)pyrimidin-4-yl]amino}methyl)pyridin-2-yl]-N-methylmethane-sulfonamide] | 1000 nM
CC(NC(=O)c1cccc(Nc2ncc(C(F)(F)F)c(NCc3cccnc3N(C)S(C)(=O)=O)n2)c1)C1CC1 (centres unmarked) [Compound 151, N-(1-cyclopropylethyl)-3-({4-[({2-[methyl(methylsulfonyl)-amino]pyridin-3-yl}methyl)amino]-5-(trifluoromethyl)pyrimidin-2-yl}amino)benzamide] | 5.24 nM
CCCC1(NC(=O)c2cccc(Nc3ncc(C(F)(F)F)c(NCc4cccnc4N(C)S(C)(=O)=O)n3)c2)CC1 [Compound 209, 3-({4-[({2-[methyl(methylsulfonyl)amino]pyridin-3-yl}methyl)amino]-5-(trifluoromethyl)pyrimidin-2-yl}amino)-N-(1-propylcyclopropyl)benzamide] | 3.68 nM
CN(CCO)C(=O)c1ccc(Nc2ncc(C(F)(F)F)c(NCc3cccnc3N(C)S(C)(=O)=O)n2)cc1 [Compound 234, N-(2-hydroxyethyl)-N-methyl-4-({4-{({2-[methyl(methylsulfonyl)amino]pyridin-3-yl}methyl)amino]-5-(trifluoromethyl)pyrimidin-2-yl}amino)benzamide] | 2.32 nM
CN(C)CCN(C)C(=O)c1cccc(Nc2ncc(C(F)(F)F)c(NCc3cccnc3N(C)S(C)(=O)=O)n2)c1 [Compound 137, N-[2-(dimethylamino)ethyl]-N-methyl-3-({4-[({2-[methyl(methylsulfonyl)amino]pyridin-3-yl}methyl)amino)-5-(trifluoromethyl)pyrimidin-2-yl}amino)benzamide] | 4.33 nM
CN(c1ncccc1CNc1nc(Nc2ccc(C(=O)N3C[C@@H](F)[C@H](F)C3)cc2)ncc1C(F)(F)F)S(C)(=O)=O [Compound 232, N-{3-[({2-[(4-{[(3R,4R)-3,4-difluoropyrrolidin-1-yl]carbonyl}phenyl)amino]-5-(trifluoromethyl)pyrimidin-4-yl}amino)methyl]pyridin-2-yl}-N-methylmethane-sulfonamide] | 2.62 nM
CC(=O)N1CCC(Nc2ncc(C(F)(F)F)c(NCc3cccnc3N(C)S(C)(=O)=O)n2)CC1 [Compound 45, N-{3-[({2-[(1-acetylpiperidin-4-yl)amino]-5-(trifluoromethyl)pyrimidin-4-yl}amino)methyl)pyridin-2-yl}-N-methylmethane-sulfonamide] | 188 nM
CC(=O)Nc1ccc(Nc2ncc(C(F)(F)F)c(NCc3cccnc3N(C)S(C)(=O)=O)n2)cn1 [Compound 102, N-[5-({4-[({2-[methyl(methylsulfonyl)amino]pyridin-3-yl}methyl)amino]-5-(trifluoromethyl)pyrimidin-2-yl}amino)pyridin-2-yl]acetamide] | 2.33 nM
C[C@@H]1COCCN1C(=O)c1ccc(Nc2ncc(C(F)(F)F)c(NCc3cccnc3N(C)S(C)(=O)=O)n2)cc1 [Compound 278, N-methyl-N-{3-(({2-[(4-{[(3R)-3-methylmorpholin-4-yl]carbonyl}phenyl)amino]-5-(trlfluoromethyl)pyrimidin-4-yl}amino)methyl]pyridin-2-yl]methanesulfonamide] | 6.64 nM
CN(c1ncccc1CNc1nc(Nc2cccc(C(=O)N3CCC[C@H](O)C3)c2)ncc1C(F)(F)F)S(C)(=O)=O [Compound 159, N-{3-[({2-[(3-{[(3S)-3-hydroxypiperidin-1-yl]carbonyl}phenyl)amino]-5-(trifluoromethyl)pyrimidin-4-yl}amino)methyl]pyridin-2-yl}-N-methylmethane-sulfonamide] | 6.14 nM
CC(=O)Nc1cccc(Nc2ncc(C(F)(F)F)c(NCc3ncccc3N(C)S(C)(=O)=O)n2)c1 [Compound 386, N-[3-({4-[({3-[methyl(methylsulfonyl)amino]pyridin-2-yl}methyl)amino]-5-(trifluoromethyl)pyrimidin-2-yl}amino)phenyl]acetamide] | 1.65 nM

Continued, values first:

IC50 | SMILES
0.981 nM | Cc1cc(C(N)=O)ccc1Nc1ncc(C(F)(F)F)c(NCc2nccnc2N(C)S(C)(=O)=O)n1 [Compound 345, 3-methyl-4-({4-[({3-[methyl(methylsulfonyl)amino]pyrazin-2-yl}methyl)amino]-5-(trifluoromethyl)pyrimidin-2-yl}amino)benzamide]
0.96 nM | CN1CCC(NC(=O)c2cccc(Nc3ncc(C(F)(F)F)c(NCc4cccnc4N(C)S(C)(=O)=O)n3)c2)CC1 [Compound 173, 3-({4-[({2-[methyl(methylsulfonyl)amino]pyridin-3-yl}methyl)amino]-5-(trifluoromethyl)pyrimidin-2-yl}amino)-N-(1-methylpiperidin-4-yl)benzamide]
1.13 nM | CCC(CO)NC(=O)c1cccc(Nc2ncc(C(F)(F)F)c(NCc3cccnc3N(C)S(C)(=O)=O)n2)c1 (centres unmarked) [Compound 203, N-[1-(hydroxymethyl)propyl]-3-({4-[({2-[methyl(methylsulfonyl)amino]pyridin-3-yl}methyl)amino]-5-(trifluoromethyl)pyrirnidin-2-yl}amino)benzamide]
0.6 nM | Cc1cccc(CNc2nc(Nc3ccccc3)ncc2C(F)(F)F)c1N(C)S(C)(=O)=O [Compound 64, N-[2-({[2-anilino-5-(trifluoromethyl)pyrimidin-4-yl)amino}methyl)-6-methylphenyl]-N-methylmethanesulfonamide]
0.6 nM | Cc1ccc(N(C)S(C)(=O)=O)cc1CNc1nc(Nc2ccccc2)ncc1C(F)(F)F [Compound 63, N-[3-({[2-anilino-5-(trifluoromethyl)pyrimidin-4-yl]amino}methyl)-4-methylphenyl]-N-methylmethanesulfonamide]
0.6 nM | Cc1cccc(CNc2nc(Nc3ccc(C(N)=O)cc3)ncc2C(F)(F)F)c1N(C)S(C)(=O)=O [Compound 108, 4-{[4-({3-methyl-2-[methyl(methylsulfonyl)amino]benzyl}amino)-5-(trifluoromethyl)pyrimidin-2-yl]amino}benzamide]
< 0.595 nM | CN(c1ncccc1CNc1nc(Nc2ccc(CNC(CO)CO)cc2)ncc1C(F)(F)F)S(C)(=O)=O [Example 8, N-(3-((2-(4-((1,3-dihydroxypropan-2-ylamino)methyl)phenylamino)-5-(trifluoromethyl)pyrimidin-4-ylamino)methyl)pyridin-2-yl)-N-methylmethanesulfonamide]
< 0.595 nM | Cc1cc(Nc2ncc(C(F)(F)F)c(NCc3ncccc3N(C)S(C)(=O)=O)n2)ccc1C(N)=O [Compound 336, 2-methyl-4-({4-[({3-[methyl(methylsulfonyl)amino]pyridin-2-yl}methyl)amino]-5-(trifluoromethyl)pyrimidin-2-yl)amino)benzamide]
0.6 nM | CN(c1ncccc1CNc1nc(Nc2ccc(C(=O)O)cc2)ncc1C(F)(F)F)S(C)(=O)=O [Compound 43, 4-({4-[({2-[methyl(methylsulfonyl)amino)pyridin-3-yl}methyl)amino]-5-(trifluoromethyl)pyrimidin-2-yl}amino)benzoic acid]
< 0.595 nM | Cc1ccc(CNc2nc(Nc3cccc(C(N)=O)c3)ncc2C(F)(F)F)c(N(C)S(C)(=O)=O)n1 [Compound 294, 3-({4-[({6-methyl-2-[methyl(methylsulfonyl)amino]pyridin-3-yl}methyl)amino]-5-(trifluoromethyl)pyrimidin-2-yl}amino)benzamide]
1.02 nM | CN(c1ncccc1CNc1nc(Nc2ccc(S(=O)(=O)Nc3ccccn3)cc2)ncc1C(F)(F)F)S(C)(=O)=O [Compound 61, 4-({4-[({2-[methyl(methylsulfonyl)amino]pyridin-3-yl}methyl)amino]-5-(trifluoromethyl)pyrimidin-2-yl}amino)-N-pyridin-2-ylbenzenesulfonamide]
1.64 nM | CN1CCN(c2cccc(Nc3ncc(C(F)(F)F)c(NCc4cccnc4N(C)S(C)(=O)=O)n3)c2)C1=O [Compound 367, N-methyl-N-[3-({[2-{[3-(3-methyl-2-oxoimidazolidin-1-yl)phenyl]amino}-5-(trifluoromethyl)pyrimidin-4-yl]amino}methyl)pyridin-2-yl]methanesulfonamide]
